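Exposure lasted 48 hours, with cells grown in 96-well plates and compounds tested at five concentrations. GI50 is the concentration that inhibits growth by half.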 The source made the active and inactive calls. No stated cut-off is given here; in the data, active = GI50 up to about 1.1 µM and inactive = higher.
Experiments:
Assay in all cases: inhibition of tumour cell growth, NCI panel, 48 h
UACC-257 = tested on: UACC-257
OVCAR-4 = tested on: OVCAR-4
NCI-H522 = tested on: NCI-H522
HCC 2998 = tested on: HCC 2998
MDA-N = tested on: MDA-N
COLO 205 = tested on: COLO 205
SR = tested on: SR
SK-MEL-5 = tested on: SK-MEL-5
OVCAR-5 = tested on: OVCAR-5
OVCAR-8 = tested on: OVCAR-8
HL-60 = tested on: HL-60
A498 = tested on: A498
PC-3 = tested on: PC-3
UO-31 = tested on: UO-31
K562 = tested on: K562
KM12 = tested on: KM12
NCI-H23 = tested on: NCI-H23
M14 = tested on: M14
ACHN = tested on: ACHN
SK-MEL-28 = tested on: SK-MEL-28
NCI-H226 = tested on: NCI-H226
786-0 = tested on: 786-0
SN12C = tested on: SN12C
SF-295 = tested on: SF-295
RXF 393 = tested on: RXF 393
HOP-62 = tested on: HOP-62
NCI-H460 = tested on: NCI-H460
SNB-75 = tested on: SNB-75
U-251 = tested on: U-251
BT-549 = tested on: BT-549
SK-MEL-2 = tested on: SK-MEL-2
HT-29 = tested on: HT-29
MDA-MB-435 = tested on: MDA-MB-435
DU-145 = tested on: DU-145
SF-268 = tested on: SF-268
SW-620 = tested on: SW-620
Malme-3M = tested on: Malme-3M
A549 = tested on: A549
Hs-578T = tested on: Hs-578T
T47D = tested on: T47D
LOX IMVI = tested on: LOX IMVI
SF-539 = tested on: SF-539
SK-OV-3 = tested on: SK-OV-3
NCI/ADR-RES = tested on: NCI/ADR-RES
HCT-15 = tested on: HCT-15
SNB-19 = tested on: SNB-19
MCF7 = tested on: MCF7
MOLT-4 = tested on: MOLT-4
CAKI-1 = tested on: CAKI-1
IGROV-1 = tested on: IGROV-1
HOP-92 = tested on: HOP-92
UACC-62 = tested on: UACC-62
TK-10 = tested on: TK-10
MDA-MB-231 = tested on: MDA-MB-231
CCRF-CEM = tested on: CCRF-CEM
EKVX = tested on: EKVX
RPMI-8226 = tested on: RPMI-8226
HCT-116 = tested on: HCT-116
OVCAR-3 = tested on: OVCAR-3

CNc1ccc(C(=O)CC(O)CCC(C)C2OC(=O)CC(O)CC(=O)CC(O)CC(O)CC(O)CC(O)CC3(O)CC(O)C(C(=O)NCCN(C)C)C(CC(OC4OC(C)C(O)C(NC(=O)CN5CCN(C)CC5)C4O)\C=C/C=C\C=C/C=C/C=C/C=C\C=C/C2C)O3)cc1 (stereo not drawn)
GI50 (UACC-257): 10.7 µM (inactive) | GI50 (OVCAR-4): 14 µM (inactive) | GI50 (NCI-H522): 2.65 µM (inactive) | GI50 (HCC 2998): 2.55 µM (inactive) | GI50 (MDA-N): 6.46 µM (inactive) | GI50 (COLO 205): 3.86 µM (inactive) | GI50 (SR): 2.48 µM (inactive) | GI50 (SK-MEL-5): 2.81 µM (inactive) | GI50 (OVCAR-5): 57.4 µM (inactive) | GI50 (OVCAR-8): 13.9 µM (inactive) | GI50 (HL-60): 7.29 µM (inactive) | GI50 (A498): 2.56 µM (inactive) | GI50 (PC-3): > 100 µM (inactive) | GI50 (UO-31): 4.34 µM (inactive) | GI50 (K562): 3.2 µM (inactive) | GI50 (KM12): 2.08 µM (inactive) | GI50 (NCI-H23): 4.54 µM (inactive) | GI50 (M14): 30.8 µM (inactive) | GI50 (ACHN): 2.84 µM (inactive) | GI50 (SK-MEL-28): 9.27 µM (inactive) | GI50 (NCI-H226): > 100 µM (inactive) | GI50 (786-0): 12.9 µM (inactive) | GI50 (SN12C): 3.21 µM (inactive) | GI50 (SF-295): 25.2 µM (inactive) | GI50 (RXF 393): > 100 µM (inactive) | GI50 (HOP-62): 25.6 µM (inactive) | GI50 (NCI-H460): 4.73 µM (inactive) | GI50 (SNB-75): > 100 µM (inactive) | GI50 (U-251): 4.86 µM (inactive) | GI50 (BT-549): 11.2 µM (inactive) | GI50 (SK-MEL-2): 6.22 µM (inactive) | GI50 (HT-29): 3.85 µM (inactive) | GI50 (MDA-MB-435): 14.9 µM (inactive) | GI50 (DU-145): 3.22 µM (inactive) | GI50 (SF-268): 6.64 µM (inactive) | GI50 (SW-620): 3.66 µM (inactive) | GI50 (Malme-3M): 2.28 µM (inactive) | GI50 (A549): 2.88 µM (inactive) | GI50 (Hs-578T): 1.91 µM (inactive) | GI50 (T47D): 51.4 µM (inactive) | GI50 (LOX IMVI): 2.92 µM (inactive) | GI50 (SF-539): 37.7 µM (inactive) | GI50 (SK-OV-3): > 100 µM (inactive) | GI50 (NCI/ADR-RES): 6.9 µM (inactive) | GI50 (HCT-15): 6.18 µM | GI50 (SNB-19): 3.38 µM (inactive) | GI50 (MCF7): 2.36 µM (inactive) | GI50 (MOLT-4): 4.48 µM (inactive) | GI50 (CAKI-1): > 100 µM (inactive) | GI50 (IGROV-1): 7.67 µM (inactive) | GI50 (HOP-92): > 100 µM (inactive) | GI50 (UACC-62): 46.2 µM (inactive) | GI50 (TK-10): 22.5 µM (inactive) | GI50 (MDA-MB-231): 81.7 µM (inactive)

NC1(C(=O)OCc2ccccc2)CCCC1
GI50 (UACC-257): 19.2 µM (inactive) | GI50 (OVCAR-4): 15.1 µM (inactive) | GI50 (NCI-H522): 7.06 µM (inactive) | GI50 (CCRF-CEM): 11.4 µM (inactive) | GI50 (HCC 2998): 28 µM (inactive) | GI50 (EKVX): 24.5 µM (inactive) | GI50 (MDA-N): 20.1 µM (inactive) | GI50 (COLO 205): 28.1 µM (inactive) | GI50 (SR): 33.5 µM (inactive) | GI50 (SK-MEL-5): 16.6 µM (inactive) | GI50 (OVCAR-5): 28.4 µM (inactive) | GI50 (OVCAR-8): 12.9 µM (inactive) | GI50 (HL-60): 0.21 µM (active) | GI50 (RPMI-8226): 14.2 µM (inactive) | GI50 (A498): 41.3 µM (inactive) | GI50 (PC-3): 27.2 µM (inactive) | GI50 (HCT-116): 18 µM (inactive) | GI50 (UO-31): 15.6 µM (inactive) | GI50 (K562): 14.8 µM (inactive) | GI50 (KM12): 26 µM (inactive) | GI50 (NCI-H23): 17.5 µM (inactive) | GI50 (M14): 14.5 µM (inactive) | GI50 (ACHN): 15.2 µM (inactive) | GI50 (SK-MEL-28): 22.6 µM (inactive) | GI50 (NCI-H226): 30.1 µM (inactive) | GI50 (786-0): 18 µM (inactive) | GI50 (SN12C): 25.1 µM (inactive) | GI50 (SF-295): 15.9 µM (inactive) | GI50 (RXF 393): 17.4 µM (inactive) | GI50 (HOP-62): 18.8 µM (inactive) | GI50 (NCI-H460): 43.3 µM (inactive) | GI50 (SNB-75): 18 µM (inactive) | GI50 (OVCAR-3): 11.6 µM (inactive) | GI50 (U-251): 16.3 µM (inactive) | GI50 (BT-549): 17.1 µM (inactive) | GI50 (SK-MEL-2): 17.9 µM (inactive) | GI50 (HT-29): 37.8 µM (inactive) | GI50 (MDA-MB-435): 15.1 µM (inactive) | GI50 (DU-145): 16.6 µM (inactive) | GI50 (SF-268): 15.1 µM (inactive) | GI50 (SW-620): 36.6 µM (inactive) | GI50 (Malme-3M): 16.5 µM (inactive) | GI50 (A549): 28.8 µM (inactive) | GI50 (Hs-578T): 23.7 µM (inactive) | GI50 (T47D): 25.3 µM (inactive) | GI50 (LOX IMVI): 18.2 µM (inactive) | GI50 (SF-539): 11.2 µM (inactive) | GI50 (SK-OV-3): 21.9 µM (inactive) | GI50 (NCI/ADR-RES): 28.6 µM (inactive) | GI50 (HCT-15): 22.9 µM | GI50 (SNB-19): 21.2 µM (inactive) | GI50 (MCF7): 25.1 µM (inactive) | GI50 (MOLT-4): 11.8 µM (inactive) | GI50 (CAKI-1): 19.4 µM (inactive) | GI50 (IGROV-1): 18.5 µM (inactive) | GI50 (HOP-92): 14.4 µM (inactive) | GI50 (UACC-62): 15.9 µM (inactive) | GI50 (TK-10): 82.4 µM (inactive) | GI50 (MDA-MB-231): 15.8 µM (inactive)

From ChEMBL document CHEMBL1201862, “PubChem BioAssay data set” (2004)
